Results reported in paper PMC11085442 (Molecules, 2024).
Values after ≈ are worked out from the molar mass of the structure shown.

Columns and labels:
[1] = system: LPS-stimulated RAW264.7 cell lines; assay: LPS-induced NO production (Griess) in RAW264.7; format: cell-based, murine; settings: for inhibitory activity against NO production compared with curcumin: 10 μM; for The production of NO: LPS-stimulated RAW264.7, LPS group 49.86 ± 0.62, control 1.20 ± 0.38
Description: RAW 264.7 cells were plated in 96-well plates at a density of 1 × 10^4 cells/well and incubated overnight at 37 °C under 5% CO2. […] Dexamethasone (Solarbio, D8040, Beijing, China) was used as the positive control. Then, 24 h later, NO production was determined by measuring the nitrite content using Griess reagents. Fifty microliters of culture supernatants were transferred to 96-well plates and mixed with 50 μL Griess reagent A. After incubation at room temperature for 5 min, the samples were mixed with an equal volume Griess reagent B for another 5 min. The absorbance of each mixture at 540 nm was measured using a microplate reader.

[2] = system: H2O2-stimulated PC 12 cell lines; assay: Protection against H2O2-induced oxidative damage (CCK-8); format: cell-based, rat; settings: for viability at 5 µM / viability at 10 µM / viability at 20 µM: Rattus norvegicus; for viability at 5 µM: PC-12, Dose 5 μM; for viability at 5 µM / viability at 10 µM / viability at 20 µM / Cell viability: H2O2-induced oxidative damage, PC 12, H2O2 group 49.69 ± 1.37, control 100; for viability at 10 µM: PC-12, Dose 10 μM; for viability at 20 µM: PC-12, Dose 20 μM; for anti-oxidant capacity compared with curcumin: 10 μM; for Cell viability: in % (unit assumed)
Description: PC 12 cells were seeded in 96-well plates at a density of 8000 cells/well and incubated overnight. […] After incubating under the same conditions for 24 h, 10 μL CCK-8 solution was added to each well. After 2 h incubation, the absorbance of each well was measured at 450 nm using a microplated reader (Multiskan MK-3, Thermo, Waltham, MA, USA).

PC 12 cell lines = assay: Radiation protection in vitro (CCK-8); format: cell-based, rat; settings: for radiation protection capacity: versus radiation group; for Cell viability: in % (unit assumed); for viability at 5 µM: PC-12, Dose 5 μM; for viability at 10 µM: PC-12, Dose 10 μM
Description: The rat adrenal pheochromocytoma cells (PC 12) were used for in vitro studies. A Cell Counting Kit-8 (CCK-8, Applygen Technologies Co., Ltd., Beijing, China) assay was used to determine cell viability. […] Cells were irradiated with dose of 8.0 Gy at a dose rate of 0.8 Gy/min. Then, 10 μL CCK-8 solution was added to all the wells. After 4 h incubation, the absorbance at 450 nm of each well was measured in a multiscan photometer.

[3] = Aqueous solubility determination by UV spectrophotometer; format: physicochemical; settings: water, thermodynamic from solid, saturated solution concentration
Description: A UV spectrophotometer was used to test the aqueous solubility of target compounds. Each compound to be tested was prepared into solutions with concentrations of 0.2 M, 0.1 M, 0.05 M, 0.025 M, 0.0125 M, 0.00625 M, and 0.003125 M. The optical density (OD) values of the prepared solutions were measured using an ultraviolet spectrophotometer, and concentration–OD-value standard curves were drawn for each compound to be tested. The saturated solutions of the target compounds were diluted by 5000 times and detected using an ultraviolet spectrophotometer to measure the OD values, respectively. The measured OD values were substituted into the corresponding concentration-OD value standard curve to calculate the diluted concentrations, which were multiplied by 5000 to obtain the saturated solution concentrations of the target compounds.

[4] = Dose 5 μM, radiation 8.0 Gy, PC 12, radiation group 50.22 ± 1.08
[5] = Dose 10 μM, radiation 8.0 Gy, PC 12, radiation group 50.22 ± 1.08
[6] = Dose 20 μM, radiation 8.0 Gy, PC 12, radiation group 50.22 ± 1.08
[7] = Rattus norvegicus, radiation 8.0 Gy, PC 12, radiation group 50.22 ± 1.08

COc1cc(/C=C/C(=O)CC(=O)/C=C/c2c(OC)cc(O)cc2OC)cc(CN(C)C)c1O [Compound 14a]
inhibitory activity against NO production compared with curcumin [1]: better inhibitory activity | The production of NO ([1]; Dose 5 μM): 29.10 ± 0.37 | The production of NO ([1]; Dose 10 μM): 13.47 ± 0.31 | The production of NO ([1]; Dose 15 μM): 7.49 ± 0.40 | viability at 5 µM [2]: 68 ± 3.05% | viability at 10 µM [2]: 77.1 ± 0.64% | viability at 20 µM [2]: 81.9 ± 1.35% | radiation protection capability compared with curcumin (PC 12 cell lines; 10 μM, irradiated PC 12): better radiation protection capability | radiation protection capacity (PC 12 cell lines; 10 μM): a certain degree of radiation protection capacity | Cell viability (PC 12 cell lines; [4]): 64.83 ± 0.66 | Cell viability (PC 12 cell lines; [5]): 68.68 ± 1.31 | Cell viability (PC 12 cell lines; [6]): 77.66 ± 1.75 | solubility [3]: 126 mg/mL (≈ 277 mM)

CCOc1cc(/C=C/C(=O)CC(=O)/C=C/c2cc(CN(C)C)c(O)c(OC)c2)ccc1O [Compound 1a]
The production of NO ([1]; Dose 5 μM): 44.93 ± 0.35 | The production of NO ([1]; Dose 10 μM): 32.32 ± 1.94 | The production of NO ([1]; Dose 15 μM): 5.77 ± 0.09 | anti-oxidant capacity compared with curcumin ([2]; H2O2-stimulated PC 12): better anti-oxidant capacity | Cell viability ([2]; Dose 5 μM): 66.25 ± 1.36 | Cell viability ([2]; Dose 10 μM): 80.18 ± 1.38 | Cell viability ([2]; Dose 20 μM): 89.36 ± 1.63 | radiation protection capacity (PC 12 cell lines; 10 μM): a certain degree of radiation protection capacity | viability at 5 µM (PC 12 cell lines; [7]): 60 ± 5.39% | viability at 10 µM (PC 12 cell lines; [7]): 62.9 ± 6.12% | solubility [3]: 201 mg/mL (≈ 457 mM)

COc1cc(/C=C/C(=O)CC(=O)/C=C/c2ccc(O)cc2C)cc(CN(C)C)c1O [Compound 3a]
inhibitory activity against NO production compared with curcumin [1]: better inhibitory activity | The production of NO ([1]; Dose 5 μM): 32.92 ± 2.00 | The production of NO ([1]; Dose 10 μM): 16.27 ± 1.74 | The production of NO ([1]; Dose 15 μM): 5.29 ± 0.97 | Cell viability ([2]; Dose 5 μM): 61.60 ± 3.89 | Cell viability ([2]; Dose 10 μM): 72.94 ± 2.65 | Cell viability ([2]; Dose 20 μM): 86.90 ± 1.63 | viability at 5 µM (PC 12 cell lines; [7]): 57.1 ± 3.05% | viability at 10 µM (PC 12 cell lines; [7]): 64.2 ± 0.94% | viability at 20 µM (PC 12 cell lines; Rattus norvegicus, PC-12, Dose 20 μM, radiation 8.0 Gy, PC 12, radiation group 50.22 ± 1.08): 69.1 ± 2.51% | solubility [3]: 255 mg/mL (≈ 623 mM)

COc1cc(/C=C/C(=O)CC(=O)/C=C/c2cc(C)c(O)cc2C)cc(CN(C)C)c1O [Compound 12a]
inhibitory activity against NO production compared with curcumin [1]: better inhibitory activity | The production of NO ([1]; Dose 5 μM): 18.38 ± 1.63 | The production of NO ([1]; Dose 10 μM): 12.76 ± 0.83 | The production of NO ([1]; Dose 15 μM): 9.05 ± 0.72 | anti-oxidant capacity compared with curcumin ([2]; H2O2-stimulated PC 12): better anti-oxidant capacity | viability at 5 µM [2]: 76.3 ± 3.14% | viability at 10 µM [2]: 81.9 ± 2.3% | viability at 20 µM [2]: 88.1 ± 2.09% | radiation protection capacity (PC 12 cell lines; 10 μM): a certain degree of radiation protection capacity | Cell viability (PC 12 cell lines; [4]): 59.04 ± 1.00 | Cell viability (PC 12 cell lines; [5]): 63.19 ± 1.90 | Cell viability (PC 12 cell lines; [6]): 77.34 ± 2.18 | solubility [3]: 206 mg/mL (≈ 487 mM)

COc1cc(/C=C/C(=O)CC(=O)/C=C/c2cc(OC)c(O)c(OC)c2)cc(CN(C)C)c1O [Compound 2a]
The production of NO ([1]; Dose 5 μM): 41.89 ± 1.95 | The production of NO ([1]; Dose 10 μM): 38.68 ± 0.96 | The production of NO ([1]; Dose 15 μM): 36.24 ± 0.50 | Cell viability ([2]; Dose 5 μM): 56.60 ± 0.54 | Cell viability ([2]; Dose 10 μM): 61.51 ± 1.77 | Cell viability ([2]; Dose 20 μM): 65.65 ± 1.31 | cell survival rate (anti-oxidant) ([2]; at 10 μM, H2O2-stimulated PC 12): 61% | Cell viability (PC 12 cell lines; [6]): 92.24 ± 6.04 | viability at 5 µM (PC 12 cell lines; [7]): 57.7 ± 4.12% | viability at 10 µM (PC 12 cell lines; [7]): 61.6 ± 4.11% | solubility [3]: 148 mg/mL (≈ 325 mM)

COc1cc(/C=C/C(=O)CC(=O)/C=C/c2ccc(O)cc2F)cc(CN(C)C)c1O [Compound 4a]
The production of NO ([1]; Dose 5 μM): 31.54 ± 1.30 | The production of NO ([1]; Dose 10 μM): 20.51 ± 1.88 | The production of NO ([1]; Dose 15 μM): 9.45 ± 1.96 | Cell viability ([2]; Dose 5 μM): 67.52 ± 3.31 | Cell viability ([2]; Dose 10 μM): 75.00 ± 2.39 | Cell viability ([2]; Dose 20 μM): 86.52 ± 5.31 | Cell viability (PC 12 cell lines; [6]): 97.55 ± 3.44 | viability at 5 µM (PC 12 cell lines; [7]): 56.4 ± 3.51% | viability at 10 µM (PC 12 cell lines; [7]): 61.5 ± 3.74% | solubility [3]: 314 mg/mL (≈ 760 mM)
